By IC50 is commonly meant the midpoint of a concentration-inhibition curve.

One test addresses T1, human renin (Homo sapiens, UniProt P00797).
T1 construct: purchased National Institute for Biological Standards, London
T1 sequence (P00797 67-406): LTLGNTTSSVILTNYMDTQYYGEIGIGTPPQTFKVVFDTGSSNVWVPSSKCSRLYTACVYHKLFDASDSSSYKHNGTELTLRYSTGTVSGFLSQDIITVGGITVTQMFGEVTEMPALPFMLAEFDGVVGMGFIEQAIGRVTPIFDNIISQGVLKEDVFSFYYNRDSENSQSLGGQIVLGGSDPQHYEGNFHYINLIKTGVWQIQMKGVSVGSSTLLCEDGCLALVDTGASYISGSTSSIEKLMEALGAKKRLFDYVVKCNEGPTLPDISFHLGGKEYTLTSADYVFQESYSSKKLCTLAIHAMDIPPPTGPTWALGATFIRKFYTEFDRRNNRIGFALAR
The test is described as follows: Human Renin Inhibition in vitro (angiotensin I produced, by radioimmunoassay). To be noted: pH 7.4, 37° C., two hours, human plasma. Format: biochemical. The procedure:
Compounds of Formula I were evaluated as inhibitors of human renin in an in Vitro assay, as follows: This human renin inhibition test has been previously described in detail [Papaioannou et al., Clinical and Experimental Hypertension, A7(9), 1243-1257 (1985)]. Human renin was obtained from the National Institute for Biological Standards, London. An incubation mixture was prepared containing the following components: in a total volume of 0.25 mL: 100 mM Tris-acetate buffer at pH 7.4, 25×10^-6 Goldblatt units of renin, 0.05 mL of plasma from human volunteers taking oral contraceptives, 6.0 mM Na-EDTA, 2.4 mM phenylmethyl sulfonyl fluoride, 1.5 mM 8-hydroxyquinoline, 0.4 mg/mL bovine serum albumin (BSA), and 0.024 mg/mL neomycin sulfate. This mixture was incubated for two hours at 37° C. in the presence or absence of renin inhibitors. The produced angiotensin I was determined by radioimmunoassay (New England Nuclear kit). Test compounds to be assayed were dissolved in DMSO and diluted with 100 mM Tris-acetate buffer at pH 7.4 containing 0.5% BSA to the appropriate concentration. The final concentration of organic solvent in the reaction mixture was less than 1%. Control incubations at 37° C. were used to correct for effects of organic solvent on renin activity.

A further test has as its system renin. As to conditions: cited from earlier work.
For another test, the system named is hog renin. As to conditions: after injection of hog renin into nephrectomized rats; cited from earlier work.
For the next test, the system named is pepsin. To be noted: cited from earlier work.
The next test has as its system cathepsin D. To be noted: cited from earlier work.

Non-standard residues stand in square brackets, D forms with d. Residues, ends and D or L forms follow the SMILES beside them. *: point of attachment. Sta = CC(C)C[C@H](N)[C@@H](O)CC(=O)O; Isovaleryl = CC(C)CC(=O)*

Turning to `C#CC[C@H](NC(=O)[C@@H](CC(=O)N(C)CCN1CCOCC1)Cc1ccccc1)C(=O)N[C@@H](CC1CCCCC1)[C@@H](O)[C@@H](O)CC(C)C` [Example 1, N^1-[1R*-[[[1S,1R*-(cyclohexylmethyl)-2S*,3R* -dihydroxy-5-methylhexyl]amino]carbonyl]-3-butynyl]-N^4-methyl-N^4-[2-(4-morpholinyl)ethyl]-2S*-(phenylmethyl)butanediamide], the IC50 against human renin was 1 nM.

`CC(C)CC(=O)N[C@H](C(=O)N[C@H](C(=O)N[C@@H](CC(C)C)[C@@H](O)CC(=O)N[C@@H](C)C(=O)N[C@@H](CC(C)C)[C@@H](O)CC(=O)O)C(C)C)C(C)C` [pepstatin] (Isovaleryl-VV[Sta]A[Sta]-OH): in the test with renin, the inhibitor of renin entry was “inhibitor”. The blood pressure entry with hog renin is given as “reduce blood pressure in vivo”. In addition, the inhibitor of pepsin result with pepsin is given as “inhibitor”. The “inhibitor of cathepsin D” value in the test with cathepsin D is recorded as “inhibitor”.

These data come from US5422349A, “Morpholino-oxazinyl-terminated alkylamino ethynyl alanine amino diol compounds for treatment of hypertension” (G. D. Seale & Co., priority 1992, dated 1995).
